Test results: patent US8883723B2, “Conjugate of insulin and vitamin B12 for oral delivery” (Syracuse University, priority 2007, dated 2014)
Read-outs that look alike come from different tables or passages of the source.

Tests used:
[1] = native insulin, Tietze et al. 1953; cited from earlier work
[2] = oral-enteric route; cited from earlier work
[3] = system: STZ-induced diabetic rat model; experiment: Blood glucose response after oral gavage in the STZ-induced diabetic rat model; type: in vivo, Sprague Dawley rats; settings: STZ-induced diabetic rats
From the text: To examine the in vivo efficacy of the B12-insulin conjugate, blood from the STZ-induced diabetic rat model was sampled by means of a jugular catheter prior to and subsequent to oral administration of the B12-insulin conjugate and compared to the blood glucose response following administration of an equimolar solution of free insulin (FIG. 8A and B).
Animals. Male Sprague Dawley rats (323±36; ±SD; n=12) were purchased pre-catheterised (Jugular vein) from Charles River Laboratories (Wilmington, Mass.), acclimatised for three days and then rendered insulin-deficient via infusion of streptozotocin (STZ; 60 mg/kg body weight) dissolved in citrate buffer and used within 15 min of preparation. Blood glucose concentration was assessed over four days to ensure fasting levels of greater than 14 mmol/L (>250 mg/dl) were reached. Animals were housed individually and maintained on a 12-hr light-dark (0600-1800 h) cycle with free access to food (standard laboratory chow; Scotts' Distributing, Inc) and water. Maintenance of animals and experimental protocols were conducted in accordance with federal regulations and approved by the Syracuse University Institutional Animal Care and Use Committee (Protocol Number SU 09-102)
Animal experimental design. On the day of experimentation, animals were fasted for 4 hours prior to the sampling of blood (50 μl) and the B12-insulin compound (100 nm/ml) was subsequently administered via oral gavage (1 ml). Blood was then sampled at 30-, 60-, 90-, 120-, 150-, 180-, 210-, 240-, 270- and 300-min after the administration of the conjugate for the calculation of area under the blood glucose curve (YSI 2300 STAT PLUS, YSI Incorporated, Yellow Springs, Ohio). Two control groups were used in this set of experiments; the first received a molar-equivalent concentration (100 nm) of free insulin (1 ml) while the second control group received the same quantity of the B12-insulin conjugate as the experimental group, however the conjugate was dissolved in 10^5-fold excess B12.

Intrinsic Factor = experiment: Spectrophotometric Intrinsic Factor in vitro binding studies; settings: 50 mM HEPES
Procedure: Intrinsic Factor binding studies. Intrinsic Factor (10 mg, […]) was dissolved in 1 mL dH2O. A 50 μL aliquot of B12-insulin was added to 950 μL of 50 mM HEPES buffer. Baseline was run against HEPES buffer and the first scan of B12-insulin was taken without Intrinsic Factor. A 5 μL aliquot of Intrinsic Factor was added to the B12-insulin, mixed and a second scan was taken. This procedure was repeated for five additions of Intrinsic Factor.

[4] = Melting circular dichroism studies (222 nm); type: physicochemical; settings: 50 mM HEPES
Procedure: Melting circular dichroism (CD) studies. Circular dichroism (CD) was performed on an Aviv model 202 spectrometer set at 222 nm with a 1 mL Quartz cuvette. All samples were prepared in 50 mM HEPES buffer (pH 9.7) with 25 mM carbonate and 10 mM EDTA and heated from 25 to 80° C. in 1° increments then cooled from 80 to 25° C. in the same increment. Sample concentrations ranged from 1.00 μM to 1.35 μM. […] All results were duplicated per batch and run for every batch prior to in vivo testing.

humans [5] = settings: cited from earlier work
[6] = humans; cited from earlier work
humans [7] = settings: cited from earlier work; for decrease in caloric intake: total dose 2 nmol/m^2 body-surface area, 90-min infusion
[8] = in vivo; cited from earlier work
obese subjects = settings: cited from earlier work

insulin
half-life [1]: 10 min
bioavailability [2]: about 5%

B12-insulin conjugate: Bovine insulin conjugated using CDI at B strand lysine29 to the 5′-hydroxyl group of B12; carbamate linked conjugate
reduction of blood glucose levels compared with free insulin ([3]; oral administration): more effective than free insulin
time of nadir in the blood glucose response ([3]; oral administration): 4 h
greater decrease in the area under the blood glucose curve compared to free insulin ([3]; oral gavage 1 ml of 100 nm/ml, 300 min, vs equimolar free insulin, p=0.056): 4.7 fold
binding to Intrinsic Factor (Intrinsic Factor): recognizing the B12-insulin conjugate
binding to Intrinsic Factor (Intrinsic Factor; listed as insulin-B12 conjugate): successful binding
melting temperature (circular dichroism) [4]: ~65 °C
melting temperature (circular dichroism) ([4]; listed as B12-insulin): 55 °C

GLP-1(7-36)amide: Glucagon-like peptide-1 (7-36) amide, endogenous incretin peptide
average acute reduction of food intake (humans [5]; infusion, meta-analysis): 11.7%
weight loss (humans [5]; prandial subcutaneous injections for 5 days, obese but otherwise healthy subjects): 0.55 kg

Cyanocobalamin [B12]
uptake capacity [6]: 1-2 μg per dosage

PYY3-36: truncated form of Peptide YY, endogenous appetite suppressing peptide
reduction in calorie intake (humans [7]; lean humans, i.v. infusion 0.8 pmol/kg/min, free-choice buffet meal 2 hours after end of infusion): approximately 36%
decrease in caloric intake (humans [7]; lean subjects): 31%
decrease in caloric intake (humans [7]; obese subjects): 30%
time for plasma level to return to baseline after end of infusion [8]: ≤ 30 min

CC(C)CC(N(C)C)C1(c2ccc(Cl)cc2)CCC1 (stereo not drawn) [sibutramine]
mean weight loss (obese subjects): 10%
reduction of acute caloric intake (obese subjects): 16%
